Laboratory results from US9289446B2, “Myocardial perfusion imaging methods and compositions” (GILEAD SCIENCES, INC., priority 2002, dated 2016).

How the values were obtained:
[1] = test system: coronary blood flow velocity (CBFv); experiment: Example 1: open label study of CVT-3146 IV bolus on CBFv (Doppler flow wire) in patients undergoing coronary catheterization; assay type: in vivo, humans
Procedure: The purpose of this open label study was to determine the magnitude and duration of effect of CVT-3146 (10-500 μg) on CBFv in humans.
METHODS: Patients undergoing a clinically indicated coronary catheterization with no more than a 70% stenosis in any coronary artery and no more than a 50% stenosis of the study vessel had CBFv determined by Doppler flow wire. Study subject were selected after measuring baseline and peak CBFv after an intracoronary (IC) injection of 18 μg of Ado. Twenty-three patients, who were identified as meeting the study criteria of having a peak to baseline CBFv ratio of ≧2.5 in response to Adenosine, received a rapid (<10 sec) peripheral IV bolus of CVT-3146; Doppler signals were stable and interpretable over the time-course of the increase in CBFv in 17 patients.

[2] = test system: heart rate (HR) and blood pressure (BP); experiment: Example 5: heart rate, blood pressure and plasma catecholamines after i.v. bolus in awake rats (sympathoexcitation); assay type: in vivo
Procedure: The present study was carried out to determine whether CVT-3146, a selective A2A adenosine receptor agonist, causes sympathoexcitation.
CVT (0.31 μg/kg-50 μg/kg) was given as a rapid i.v. bolus to awake rats and heart rate (HR) and blood pressure (BP) were monitored. CVT-3146 caused an increase in BP and systolic pressure (SP) at lower doses while at higher doses there was a decrease in BP and SP. […] The increase in HR was evident at the lowest dose of CVT at which there was no appreciable decrease in BP. ZM241385 (30 μg/kg, N=5), an A2A receptor antagonist, attenuated the decrease in BP (CVT-3146: 14±3%, ZM: 1±1%) and the increase in HR (CVT: 27±3%, ZM: 18±3%) caused by CVT-3146. Pretreatment with metoprolol (MET, 1 mg/kg, n=5), a beta-blocker, attenuated the increase in HR (CVT: 27±3%, MET: 15±2%), but had no effect on hypotension caused by CVT-3146. In the presence of hexamethonium (HEX, 10 mg/kg, n=5), a ganglionic blocker, the tachycardia was prevented (CVT: 27±3%, HEX: −1±2%), but BP was further reduced (CVT: −11±2%, HEX: −49±5%).

[3] = test system: blood flow in coronary, mesenteric, hind limb and renal vascular beds; experiment: Example 8: vasodilator effects in different vascular beds (CBF, MBF, LBF, RBF) in awake dogs; assay type: in vivo; details: n=6, FIG. 18
Procedure: Example 8 employed a pharmaceutical composition consisting of an aqueous composition of 100 micrograms/mL CVT-3146 in 15% (w:v) propylene glycol and 100 mM phosphate buffer at pH 7 with 0.1% EDTA. The formulation was stored in type I glass vials at 5 mL per vial.
In this study the vasodilator effects of CVT-3146 were compared to those of ADO in different vascular beds in awake dogs. Dogs were chronically instrumented for measurements of the blood flow in coronary (CBF), mesenteric (MBF), hind limb (LBF), and renal (RBF) vascular beds, and hemodynamics.

[4] = Example 3: maximum tolerated dose and safety of single IV bolus CVT-3146 in healthy volunteers, supine and standing; assay type: in vivo; details: 30 μg/kg supine, 4 subjects per group
Procedure: This Example is a study performed to evaluate (1) the maximum tolerated dose of CVT-3146 and (2) the pharmacokinetic profile of CVT-3146 in healthy volunteers, after a single IV bolus dose.
The study was performed using thirty-six healthy, non-smoking male subjects between the ages of 18 and 59 and within 15% of ideal body weight.
The study was performed in phase 1, single center, double-blind, randomized, placebo-controlled, crossover, ascending dose study. Randomization was to CVT-3146 or placebo, in both supine and standing positions.
CVT-3146 was administered as an IV bolus (20, seconds) in ascending doses of […], 10, 20, and 30 μg/kg.
Subjects received either CVT-3146 of placebo on Day 1 supine, then crossover treatment on Day 2 supine. On Day 3, subjects received CVT-3146 or placebo standing, then crossover treatment on Day 4 standing.
Patient safety was monitored by ECG, laboratory assessments, and collection of vital signs and adverse events.
Pharmacodynamics: • The study evaluated the relationship of changes in heart rate to dose in both standing and supine positions and plasma concentration in the supine position. Results

[5] = Solubility of CVT-3146 in water and in MBA-containing composition; assay type: physicochemical; details: methylboronic acid co-solvent, dependence on pH
Procedure: A preferred A2A receptor agonist of this invention is CVT-3146. CVT-3146 has solubility in water of about 50 micrograms/mL. Therefore, CVT-3146 can be dissolved and administered in water so long as the desired weight amount of CVT-3146 can be administered in an acceptable volume. For example, a preferred dose of about 400 micrograms can be administered in 8 mL of water. If this volume is too great for administration purposes, or if the pharmaceutical composition will be stored at other than room temperature (RT), then additional ingredients can be added to the composition to increase the solubility of CVT-3146 in the composition and/or to provide the resulting pharmaceutical composition with other improved properties such as improved stability and storage properties. Pharmaceutical compositions of this invention that include CVT-3146 may include up to about 1 milligram/mL of CVT-3146. It is preferred that pharmaceutical compositions including CVT-3146 include from about 50 to about 250 micrograms/mL, and more preferably from about 50 to 150 micrograms/mL of CVT-3146.
In order to improve their solubility and storage properties, A2A receptor agonists of this invention can be administered in a pharmaceutical composition including a methylboronic acid (MBA) co-solvent. The methylboronic acid is added to the pharmaceutical composition to improve agonist solubility and shelf life. […]

In the case of `CNC(=O)c1cnn(-c2nc(N)c3ncn([C@@H]4O[C@H](CO)[C@@H](O)[C@H]4O)c3n2)c1` [CVT-3146, (1-{9-[(4S,2R,3R,5R)-3,4-dihydroxy-5-(hydroxymethyl)oxolan-2-yl]-6-aminopurin-2-yl}pyrazol-4-yl)-N-methylcarboxamide], the “maximal decrease in systolic blood pressure (BP)” value ([1]; 500 μg (n=3)) is reported as 8.7±7.6, the “maximal increase in heart rate (HR)” value ([1]; 500 μg (n=3)) is reported as 18.7±4.0 and the “adverse events (AEs)” value ([1]; 500 μg dose, 3 patients) is reported as “No AEs were noted”. The “adverse events (AEs)” value ([1]; 10-500 μg IV bolus) was “infrequent and included nausea, flushing, and headache; these were mild and self-limited”, the “time at which increase in CBFv was near peak, post onset of bolus” value ([1]; IV bolus, humans) was 30 to 40 s and the “effect on HR over dose” value ([2]; 0.31 μg/kg-50 μg/kg rapid i.v. bolus) was “dose-dependent increase in HR”. For the same compound, the “decrease in BP caused by CVT-3146” value ([2]; CVT-3146 alone (comparison with ZM241385), awake rats) was 14±3%, the “change in BP caused by CVT-3146” value ([2]; CVT-3146 alone (comparison with hexamethonium)) was −11±2% and the “increase in HR caused by CVT-3146” value ([2]; CVT-3146 alone, awake rats) was 27±3%. The “increase in hind limb blood flow (LBF) compared to ADO” value [3] was “smaller increase in LBF than ADO”, the “Dizziness labeled as severe, number of subjects with AE” value [4] was 0 and the “Palpitation labeled as severe, number of subjects with AE” value [4] was 2. The “Syncope labeled as severe, number of subjects with AE” value [4] was 0 and the “solubility in a pharmaceutical composition including MBA” value [5] was “tends to decrease as the composition pH drops towards neutral”.
